Activity calls are given as the source filed them. The calls are words filed in the database; no cut-off is given here.
Tests used:
[1] = test system: Nucleic Acid; experiment: Induction of photochemical DNA cleavage in Escherichia coli pBR322 assessed as form I level at 15 uM in pH 8.0 phosphate buffer measured after 8 mins of UV irradiation; type: nucleic-acid assay
[2] = test system: Nucleic Acid; experiment: Induction of photochemical DNA cleavage in Escherichia coli pBR322 assessed as form 2 level at 15 uM in pH 7.0 phosphate buffer measured after 4 mins of UV irradiation; type: nucleic-acid assay
[3] = test system: Nucleic Acid; experiment: Induction of photochemical DNA cleavage in Escherichia coli pBR322 assessed as disappearance of supercoiled DNA at 15 uM in pH 6.0 phosphate buffer after 10 mins of UV irradiation; type: nucleic-acid assay
[4] = test system: Nucleic Acid; experiment: Induction of photochemical DNA cleavage in Escherichia coli pBR322 assessed as form I level at 15 uM in pH 6.0 phosphate buffer measured after 1 min of UV irradiation; type: nucleic-acid assay
[5] = test system: Nucleic Acid; experiment: Induction of photochemical DNA cleavage in Escherichia coli pBR322 assessed as form I level at 15 uM in pH 6.0 phosphate buffer measured after 8 mins of UV irradiation; type: nucleic-acid assay
[6] = test system: Nucleic Acid; experiment: Induction of photochemical DNA cleavage in Escherichia coli pBR322 assessed as form 2 level at 15 uM in pH 6.0 phosphate buffer measured after 0.5 mins of UV irradiation; type: nucleic-acid assay
[7] = test system: Nucleic Acid; experiment: Induction of photochemical DNA cleavage in Escherichia coli pBR322 assessed as form I level at 15 uM in pH 8.0 phosphate buffer measured after 0.5 mins of UV irradiation; type: nucleic-acid assay
[8] = test system: A-375; experiment: Drug uptake in human A375 cells at 30 uM incubated for 30 mins by differential interference contrast microscopy; type: ADME, cell-based; conditions: a-375, 0.5 h
[9] = test system: Nucleic Acid; experiment: Induction of photochemical DNA cleavage in Escherichia coli pBR322 assessed as form I level at 15 uM in pH 6.0 phosphate buffer measured after 0.5 mins of UV irradiation; type: nucleic-acid assay
[10] = test system: Nucleic Acid; experiment: Induction of photochemical DNA cleavage in Escherichia coli pBR322 assessed as form 3 level at 15 uM in pH 8.0 phosphate buffer measured after 8 mins of UV irradiation; type: nucleic-acid assay
[11] = test system: Nucleic Acid; experiment: Induction of photochemical DNA cleavage in Escherichia coli pBR322 assessed as disappearance of supercoiled DNA at 15 uM in pH 8.0 phosphate buffer after 10 mins of UV irradiation; type: nucleic-acid assay
[12] = test system: Nucleic Acid; experiment: Induction of photochemical DNA cleavage in Escherichia coli pBR322 assessed as form 3 level at 15 uM in pH 8.0 phosphate buffer measured after 0.5 mins of UV irradiation; type: nucleic-acid assay
[13] = test system: Nucleic Acid; experiment: Induction of photochemical DNA cleavage in Escherichia coli pBR322 assessed as form I level at 15 uM in pH 7.0 phosphate buffer measured after 0.5 mins of UV irradiation; type: nucleic-acid assay
[14] = test system: Nucleic Acid; experiment: Induction of photochemical DNA cleavage in Escherichia coli pBR322 assessed as form I level at 15 uM in pH 8.0 phosphate buffer measured after 1 min of UV irradiation; type: nucleic-acid assay
[15] = test system: Nucleic Acid; experiment: Induction of photochemical DNA cleavage in Escherichia coli pBR322 assessed as form 2 level at 15 uM in pH 6.0 phosphate buffer measured after 2 mins of UV irradiation; type: nucleic-acid assay
[16] = test system: Nucleic Acid; experiment: Induction of photochemical DNA cleavage in Escherichia coli pBR322 assessed as form I level at 15 uM in pH 6.0 phosphate buffer measured after 2 mins of UV irradiation; type: nucleic-acid assay
[17] = test system: Nucleic Acid; experiment: Induction of photochemical DNA cleavage in Escherichia coli pBR322 assessed as form I level at 15 uM in pH 6.0 phosphate buffer measured after 6 mins of UV irradiation; type: nucleic-acid assay
[18] = test system: Nucleic Acid; experiment: Induction of DNA damage in human […] cells at 30 uM incubated for 3 hrs using cells exposed to UV irradiation for 20 mins by single cell gel electrophoresis; type: cell-based
[19] = test system: Nucleic Acid; experiment: Induction of photochemical DNA cleavage in Escherichia coli pBR322 assessed as form 2 level at 15 uM in pH 6.0 phosphate buffer measured after 6 mins of UV irradiation; type: nucleic-acid assay
[20] = test system: Nucleic Acid; experiment: Induction of photochemical DNA cleavage in Escherichia coli pBR322 assessed as form 2 level at 15 uM in pH 6.0 phosphate buffer measured after 10 mins of UV irradiation; type: nucleic-acid assay
[21] = test system: Nucleic Acid; experiment: Induction of photochemical DNA cleavage in Escherichia coli pBR322 assessed as form 3 level at 15 uM in pH 6.0 phosphate buffer measured after 4 mins of UV irradiation; type: nucleic-acid assay
[22] = test system: Nucleic Acid; experiment: Induction of photochemical DNA cleavage in Escherichia coli pBR322 assessed as form 3 level at 15 uM in pH 7.0 phosphate buffer measured after 6 mins of UV irradiation; type: nucleic-acid assay
[23] = test system: Nucleic Acid; experiment: Induction of photochemical DNA cleavage in Escherichia coli pBR322 assessed as form I level at 15 uM in pH 8.0 phosphate buffer measured after 6 mins of UV irradiation; type: nucleic-acid assay
[24] = test system: Nucleic Acid; experiment: Induction of photochemical DNA cleavage in Escherichia coli pBR322 assessed as supercoiled DNA level at 15 uM in pH 6.0 phosphate buffer measured after 2 mins of UV irradiation; type: nucleic-acid assay
[25] = test system: Nucleic Acid; experiment: Induction of photochemical DNA cleavage in Escherichia coli pBR322 assessed as form 2 level at 15 uM in pH 8.0 phosphate buffer measured after 0.5 mins of UV irradiation; type: nucleic-acid assay
[26] = test system: Nucleic Acid; experiment: Induction of photochemical DNA cleavage in Escherichia coli pBR322 assessed as form 3 level at 15 uM in pH 8.0 phosphate buffer measured after 6 mins of UV irradiation; type: nucleic-acid assay
[27] = test system: Nucleic Acid; experiment: Induction of photochemical DNA cleavage in Escherichia coli pBR322 assessed as form 3 level at 15 uM in pH 7.0 phosphate buffer measured after 0.5 mins of UV irradiation; type: nucleic-acid assay
[28] = test system: Nucleic Acid; experiment: Induction of photochemical DNA cleavage in Escherichia coli pBR322 assessed as form 2 level at 15 uM in pH 8.0 phosphate buffer measured after 10 mins of UV irradiation; type: nucleic-acid assay
[29] = test system: Nucleic Acid; experiment: Induction of DNA damage in human […] cells at 30 uM incubated for 3 hrs using cells exposed to UV irradiation for 4 to 24 hrs by single cell gel electrophoresis; type: cell-based; conditions: TDE = time-dependent effect
[30] = test system: Nucleic Acid; experiment: Induction of photochemical DNA cleavage in Escherichia coli pBR322 assessed as form 2 level at 15 uM in pH 8.0 phosphate buffer measured after 4 mins of UV irradiation; type: nucleic-acid assay
[31] = test system: Nucleic Acid; experiment: Induction of photochemical DNA cleavage in Escherichia coli pBR322 assessed as disappearance of supercoiled DNA at 15 uM in pH 7.0 phosphate buffer after 10 mins of UV irradiation; type: nucleic-acid assay
[32] = test system: A-375; experiment: Phototoxicity in human A375 cells incubated for 72 hrs exposed to UV light for 10 mins by MTT assay; type: functional; conditions: A-375, light or radiation study
[33] = test system: A-375; experiment: Toxicity in human A375 cells at <10 uM under dark condition incubated for 72 hrs by MTT assay; type: cell-based; conditions: a-375, 72 h
[34] = test system: Nucleic Acid; experiment: Induction of photochemical DNA cleavage in Escherichia coli pBR322 assessed as form 2 level at 15 uM in pH 7.0 phosphate buffer measured after 10 mins of UV irradiation; type: nucleic-acid assay
[35] = test system: Nucleic Acid; experiment: Induction of photochemical DNA cleavage in Escherichia coli pBR322 assessed as form 2 level at 15 uM in pH 7.0 phosphate buffer measured after 0.5 mins of UV irradiation; type: nucleic-acid assay

NCCCC[C@H](N)C(=O)NCCCC[C@H](N)C(=O)Nc1ccc(C#Cc2c(F)c(F)nc(F)c2F)cc1.O=C(O)C(F)(F)F
Activity [1]: 42.3%
Activity [2]: 52.4%
Activity [3]: Active
Activity [4]: 30.2%
Activity [5]: 0%
Activity [6]: 60%
Activity [7]: 86.4%
Drug uptake [8]: Active
Activity [9]: 26.5%
Activity [10]: 12.1%
Activity [11]: Active
Activity [12]: 0%
Activity [13]: 64.6%
Activity [14]: 83.9%
Activity [15]: 54.2%
Activity [16]: 17.3%
Activity [17]: 0%
Activity [18]: Active
Activity [19]: 48.1%
Activity [20]: 21.3%
Activity [21]: 34.9%
Activity [22]: 28.1%
Activity [23]: 40.8%
Activity [24]: < 17%
Activity [25]: 13.6%
Activity [26]: 0%
Activity [27]: 0%
Activity [28]: 52.3%
Activity [29]: tde
Activity [30]: 41.4%
Activity [31]: Active
CC50 [32]: 270 nM
Activity [33]: Non-toxic
Activity [34]: 47.8%
Activity [35]: 35.4%
